Measurements published in patent publication US6548715B1, “Structural analogues of vitamin D” (Laboratoire Theramex S.A., priority 1993, dated 2003).

Assays:
[1] = tested on: vitamin D-deficient chicks; assay: Calcemic effect in vitamin D-deficient chicks (serum calcium); type: in vivo, chick; conditions: % of the activity of 1α,25-(OH)2D3 at 50% of its activity (B50); vitamin D-deficient chicks injected 10 consecutive days
Protocol: The antirachitic activity of the analogues was tested in 3 weeks old vitamin D-deficient chicks injected for 10 consecutive days with 1α,25-(OH)2D3 or its analogues (22,23). Serum calcium (by atomic absorptiometry) and osteocalcin (by specific RIA), duodenal calbindin D-28K (by RIA) and bone calcium content were measured. The hypercalcemic effect of the most interesting anologues was also tested in vitamin D-replete normal NMRI mice by daily sc injection of 1α,25-(OH)2D3, its analogues or the solvent for 7 consecutive days, using serum, bone and urinary calcium excretion and serum osteocalcin (by specific mouse RIA) as parameters (40).

vitamin D receptor = target: T1, vitamin D receptor (Sus scrofa, UniProt A3RGC1); conditions: % of the activity of 1α,25-(OH)2D3 at 50% of its activity (B50); 1α,25-(OH)2D3 assigned 100%
T1 sequence (A3RGC1 1-427): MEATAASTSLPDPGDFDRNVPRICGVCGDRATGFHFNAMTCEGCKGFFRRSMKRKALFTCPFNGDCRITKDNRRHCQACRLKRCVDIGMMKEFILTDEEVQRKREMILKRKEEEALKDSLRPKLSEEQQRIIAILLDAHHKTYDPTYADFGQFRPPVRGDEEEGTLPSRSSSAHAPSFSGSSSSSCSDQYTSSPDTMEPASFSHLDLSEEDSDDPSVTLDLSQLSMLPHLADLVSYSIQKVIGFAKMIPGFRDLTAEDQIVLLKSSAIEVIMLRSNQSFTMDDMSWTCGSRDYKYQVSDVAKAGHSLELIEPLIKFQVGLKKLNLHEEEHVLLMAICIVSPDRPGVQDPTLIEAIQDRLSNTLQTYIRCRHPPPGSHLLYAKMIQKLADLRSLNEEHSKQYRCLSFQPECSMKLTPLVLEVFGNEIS

HL-60 cells = assay: HL-60 cell differentiation (NBT reduction); type: cell-based; conditions: % of the activity of 1α,25-(OH)2D3 at 50% of its activity (B50); human leukemia cells
Protocol: (§1) HL-60 cells were seeded at 1.2×10^5 cells/ml and 1α,25-(OH)2D3 or its anologs were added in ethanol (final concentration <0.2%) in RPMI 1640 medium supplemented with 10% heat-inactivated fetal calf serum (FCS) for 4 d at 37° C. Cells were then assayed for maturation by NBT reduction assay as described (22) using a hemacytometer, or for proliferation by cell counting and [^3H] thymidine incorporation. MG 63 cells, seeded at 5×10^3 cells/ml in 96 well flat bottomed culture plates (Falcon, Becton Dickinson, N.J.) in a volume of 0.2 ml of DMEM and 2% FCS, were incubated with 1α,25-(OH)2D3 or its analogues for 72 h. Osteocalcin was then measured in the culture medium using a homologous human osteocalcin RIA (39). Breast carcinoma cells (MCF-7 or GR) were grown in DMEM/nut.mix F-12 (HAM) medium supplemented with 10% FCS. Cells (5000/Well) were incubated during 24 h in 96 well tissue culture plates (Falcon 3072) followed by a 72 h incubation with/without 1α,25-(OH)2D3 or analogues. The cells were then incubated with [^3H]thymidine (1 μCi/well) for 4 h and harvested thereafter in NaOH (0.1 M) and the radioactivity counted. The protein content of the cells was measured by the Pierce BCA protein assay (Rockford, Ill.).

[2] = target: T2, human DBP (vitamin D binding protein) (Homo sapiens, UniProt P02774); assay: Relative affinity for purified human vitamin D-binding protein (hDBP); conditions: % of the activity of 1α,25-(OH)2D3 at 50% of its activity (B50)
T2 sequence (P02774 17-474): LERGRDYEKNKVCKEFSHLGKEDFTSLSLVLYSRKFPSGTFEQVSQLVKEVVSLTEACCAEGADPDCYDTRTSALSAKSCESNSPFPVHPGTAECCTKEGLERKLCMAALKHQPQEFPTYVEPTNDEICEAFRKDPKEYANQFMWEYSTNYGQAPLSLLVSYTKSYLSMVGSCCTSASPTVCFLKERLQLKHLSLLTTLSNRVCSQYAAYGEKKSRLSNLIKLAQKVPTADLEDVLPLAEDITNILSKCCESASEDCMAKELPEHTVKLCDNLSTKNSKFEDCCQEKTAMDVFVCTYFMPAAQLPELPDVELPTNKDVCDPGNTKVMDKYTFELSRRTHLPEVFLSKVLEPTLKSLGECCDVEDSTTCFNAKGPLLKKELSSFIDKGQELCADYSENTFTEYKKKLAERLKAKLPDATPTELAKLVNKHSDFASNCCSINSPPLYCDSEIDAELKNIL

MG-63 cells = assay: MG-63 osteosarcoma cells, osteocalcin secretion; type: cell-based; conditions: % of the activity of 1α,25-(OH)2D3 at 50% of its activity (B50); human osteosarcoma cells
Protocol: as §1

MCF-7 cells = assay: MCF-7 breast cancer cell proliferation ([3H]thymidine incorporation); type: cell-based; conditions: % of the activity of 1α,25-(OH)2D3 at 50% of its activity (B50); human breast cancer cells
Protocol: as §1

[3] = tested on: human normal keratinocytes; assay: Human keratinocyte proliferation ([3H]thymidine incorporation); type: cell-based; conditions: % of the activity of 1α,25-(OH)2D3 at 50% of its activity (B50)
Protocol: to evaluate the effects on cell proliferation of non-malignant cells and especially to evaluate their potential for use for dermatological disorders, the new compounds were tested in cultures of human normal keratinocytes.
Human skin keratinocytes were isolated and cultured using a modification of the method of Kitano and Okada (38).
Briefly, the skin from biopsies of patients with breast tumors, was cutted into pieces measuring 3-5 mm and soaked overnight at 4° C. in a solution of dispase (20 Boehringer units/ml). The epidermis was peeled from the dermis, washed with calcium- and magnesium-free phosphate buffered saline and incubated and shaked in a 0.25% trypsin solution for 10 min at room temperature. The reaction was then stopped by addition of PBS containing 10% FCS. The cells were collected after centrifugation at 4° C. for 10 min at 800 rpm. After an additional washing with PBS, the pellet was suspended in culture medium into 25 cm^2 primaria flasks from Becton Dickinson. The keratinocytes were cultivated at 37° C. in an atmosphere of 5% CO2 in air. A few hours later, the medium was replaced by new one. The medium [Keratinocyte Medium from Gibco containing Epidermal Growth Factor (5 ng/ml), Bovine Pituitary Extract (35-50 μg/ml) and antibiotics] was renewed every other day until confluency.
Keratinocytes were cultured in 96-well plate and, after 24 hours, were treated with various concentrations of vitamin D analogues, followed by pulse labelling with 1 μCi of [^3H]thymidine for 3 hours. Cultures were washed 3 times with PBS and twice with 10% (v/v) ice cold trichloroacetic acid. Cells were solubilized with 1 M NaOH and radioactivity was counted in a scintillation counter.

| Compound | Ca serum chick [1] | Affinity for pig receptor (vitamin D receptor) | Cell differentation/cell proliferation HL-60 (HL-60 cells) | Affinity for human DBP [2] | Cell differentation/cell proliferation MG-63 (MG-63 cells) | Cell differentation/cell proliferation MCF-7 (MCF-7 cells) | Cell differentation/cell proliferation keratinocytes [3] |
| --- | --- | --- | --- | --- | --- | --- | --- |
| CC(CC#CC1(C)CO1)C1CCC2C(=CC=C3CC(O)CC(O)C3)CCCC21C (mixture of isomers) [Compound 45] | 1% | 2.5% | 80% | 1.5% | 10% | 20% |  |
| CC(CCCC(C)(C)O)C1CCC2C(=CC=C3CC(O)CC(O)C3)CCC(O)C21 (stereo not drawn) [Compound 2] |  | 0% | 75% | 0% | 4.5% |  |  |
| C=C1C(=CC=C2CCCC3C2CCC3C(C)CCCC(C)(C)O)CC(O)CC1O (stereo not drawn) [Compound 3] |  | 100% | 720% | 10% | 75% |  |  |
| C=C1/C(=C\C=C2/CCC[C@](C)([C@H](C)[C@H](C)CC[C@H](O)C(C)C)C2)C[C@@H](O)C[C@@H]1O [Compound 4] | <1% | 60% | 500% | 5% | 100% | 2000% | 2000% |
| C=C1/C(=C\C=C2/CCC[C@](C)([C@H](C)[C@H](C)CCCC(C)(C)O)C2)C[C@@H](O)C[C@@H]1O [Compound 7] | 5% | 60% | 1000% | 20% | 700% | 6000% |  |
| CC(CCCC(C)(C)O)C(C)C1(C)CCCC(=CC=C2CC(O)CC(O)C2)C1 (stereo not drawn) [Compound 8] | <0.1% | 45% | >1000% | 3% | 300% | 3000% |  |
| C=C1C(=CC=CCC2(C)CCC(CCCC(O)(CC)CC)C2(C)C)CC(O)CC1O (stereo not drawn) [Compound 16] | 0.2% | 15% | 12% | 0% | 10% |  | 30% |
| C=C1C(=CC=CCC2(C)CCC(OCCC(O)(CC)CC)C2(C)C)CC(O)CC1O (stereo not drawn) [Compound 18] | <0.1% | 4% | 10% | 0% |  | 40% | 35% |
| C=C1C(=CC=CCC2(C)CCC(CCCCC(C)(C)O)C2(C)C)CC(O)CC1O (stereo not drawn) [Compound 19] |  | 13% | 10% | 50% | 30% |  |  |
| C=C1C(=CC=CCC2(C)CCC(CCCCC(O)(CC)CC)C2(C)C)CC(O)CC1O (stereo not drawn) [Compound 20] |  | 28% | 75% | 8% | 30% |  |  |
| C=C1/C(=C\C=C\[C@@H]2CC[C@](C)(CCCCC(O)(CC)CC)C2(C)C)C[C@@H](O)C[C@@H]1O [Compound 38] | 2% | 80% | 100% | 2% |  |  |  |
| CCC(O)(C=CC=CC(C)C1CCC2C(=CC=C3CC(O)CC(O)C3)CCCC21C)CC (stereo not drawn) [Compound 50] | 0.1% | 9% | 40% | 0% |  | 100% | 60% |
| CC(CCCCC(C)(C)O)C1CCC2C(=CC=C3CC(O)CC(O)C3)CCCC21C (stereo not drawn) [Compound 54] | 0.4% | 20% | 30% | 1% | 10% |  |  |
| CCC(O)(CC)CCCCC(C)C1CCC2C(=CC=C3CC(O)CC(O)C3)CCCC21C (stereo not drawn) [Compound 55] | 0.3% | 30% | 65% | 0% | 3% |  |  |
| C=C1C(=CC=CC2CCCC(C(C)CCCC(C)(C)O)C2(C)C)CC(O)CC1O (stereo not drawn) [Compound 56] |  |  | 100% | 70% |  |  |  |
